According to publication PMC9060023 (Skin Health and Disease, 2021):
pEC50: −log10 of the molar value.

Legend:
Tyr, Trp1 and Dct genes = test: Expression of melanogenesis genes in pinnae of Ay/a mice (quantitative real-time PCR); format: in vivo, mouse
Experimental: (§1) Unless noted otherwise, 3‐week‐old male C57BL/6J‐A^y/+ mice (Ay/a mice) were purchased from Japan SLC, Inc. Mice were housed under specific pathogen‐free conditions, and all animal experiments were conducted according to the Guidelines for Animal Experimentation at our institute. On day 0, the coat of the lower back was shaved, and animals were allocated to experimental groups. […] Assessment of coat colour of the shaved area on day 6 was performed macroscopically in a blinded manner. The dorsal skins were dissected and fixed in a neutralised formalin then embedded in paraffin. Melanin production in the hair roots of the dorsal skin was histologically evaluated by Fontana‐Masson staining.
Total RNA was extracted using the Qiagen RNeasy Mini Kit (Qiagen), and quantitative real‐time PCR for Tyr, Trp1 and Dct was performed using the One Step SYBR PrimeScript PLUS RT‐PCR Kit (Takara Bio). Hypoxanthine phosphoribosyltransferase 1 (Hprt) was used as an endogenous control for normalisation. The ΔCT method was used to determine the relative expression levels. All PCR primers were purchased from Takara Bio with following product codes, MA153806 (Tyr), MA129755 (Trp1), MA118342 (Dct) and MA031262 (Hprt).

rat MC1R = biological target: T1, rat MC1R (Rattus norvegicus, UniProt B6ZGR5); test: Cyclic AMP assay in HEK293 cells stably expressing rat MC1R; format: cell-based; conditions: data not shown, read-out: EC50 agonistic activity (cAMP)
T1 construct: expressed in transfected cells; host or cells: HEK293 (Jump-In TI Gateway targeted integration, SV40 promoter)
T1 sequence (B6ZGR5 1-317): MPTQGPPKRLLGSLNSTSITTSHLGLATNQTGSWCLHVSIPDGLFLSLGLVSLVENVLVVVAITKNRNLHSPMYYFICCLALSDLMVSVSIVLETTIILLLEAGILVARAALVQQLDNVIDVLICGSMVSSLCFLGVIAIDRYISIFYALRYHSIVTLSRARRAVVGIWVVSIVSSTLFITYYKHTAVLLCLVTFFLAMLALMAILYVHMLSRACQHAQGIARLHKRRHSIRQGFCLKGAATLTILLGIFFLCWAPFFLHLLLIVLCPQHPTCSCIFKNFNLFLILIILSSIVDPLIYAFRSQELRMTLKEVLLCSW

melanocytes in face = test: Chronic toxicity study, histopathology of melanocytes in face; format: in vivo; conditions: chronic toxicity study in non-rodent species; data not shown
[1] = Pharmacokinetic study, 4 weeks repeated oral dosing in cynomolgus monkeys; format: in vivo, cynomolgus monkey; conditions: for Cmax / Tmax / AUC(0-t): female, cynomolgus monkey, plasma; for AUC(0-t): read-out: AUC0–24 h
[2] = Pharmacokinetic study, single oral dose in Ay/a mice; format: in vivo, mouse; conditions: for Cmax: Ay/a, mouse, po; for Cmax / Tmax / AUC(0-t): plasma; for AUC(0-t): read-out: AUC0–8 h
[3] = Tissue distribution study in rats; format: in vivo, rat; conditions: data not shown
[4] = tested on: cynomolgus monkeys (Macaca fascicularis); test: Pigmentation on the facial skin of cynomolgus monkeys (colorimeter, ΔL*); format: in vivo, cynomolgus monkey
Experimental: This study was conducted in compliance with the ‘Act on Welfare and Management of Animals’ in Japan and the ‘Guidance for Animal Care and Use’ and in accordance with the protocol reviewed by the Institutional Animal Care and Use Committee of the test facility, which is fully accredited by AAALAC International. […] The measurement site (cheek) was the same site on the face for all animals. […] The ΔL* represents the differences of individual L* values between each time point and pre‐test.

human MC2R (hMC2R) = biological target: T2, human MC2R (hMC2R) (Homo sapiens, UniProt Q01718); test: Cyclic AMP assay in CHO-K1 cells expressing human MC2R and MRAP; format: cell-based; conditions: data not shown, read-out: EC50 agonistic activity (cAMP)
T2 construct: host or cells: CHO-K1

[5] = tested on: B16F1 mouse melanoma cell line; test: Melanin production in B16F1 cell line; format: cell-based; conditions: B16-F1, 72 h, read-out: EC50 of melanin production (95% confidence interval)
Experimental: Dulbecco's modified Eagle medium without phenol red (Life Technologies), containing 10% foetal bovine serum (Gibco) and 100 U/ml of penicillin‐streptomycin (Gibco), was used as the assay medium. Cells (1.5 × 10^4) were seeded into a 96‐well culture plate. Serially diluted test substances were added to the plate and incubated at 37°C in a humidified 5% CO2 incubator for 3 days.

[6] = tested on: C57BL/6J-Ay/+ mice (Ay/a mice); test: Coat colour darkening in Ay/a mice; format: in vivo, mouse; conditions: for Coat colour of all mice: 6 consecutive days
Experimental: as §1

[7] = biological target: T3, cynomolgus monkey MC1R (cmMC1R) (Macaca fascicularis, UniProt A3KF53); test: Cyclic AMP assay in HEK293 cells stably expressing cmMC1R; format: cell-based; conditions: cmMC1R on HEK293; geometric mean of three experiments; read-out: EC50 agonistic activity (cAMP)
T3 sequence (A3KF53 1-317): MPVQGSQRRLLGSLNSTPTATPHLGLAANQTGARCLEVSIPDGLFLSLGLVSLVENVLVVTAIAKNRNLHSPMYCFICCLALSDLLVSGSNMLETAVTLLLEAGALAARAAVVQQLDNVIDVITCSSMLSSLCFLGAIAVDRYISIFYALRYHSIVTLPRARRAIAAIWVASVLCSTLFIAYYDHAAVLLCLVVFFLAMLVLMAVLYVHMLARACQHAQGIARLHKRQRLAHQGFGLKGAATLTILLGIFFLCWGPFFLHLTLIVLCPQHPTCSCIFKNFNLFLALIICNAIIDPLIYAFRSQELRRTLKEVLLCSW
Experimental: (§2) The site‐specific integration of each MCR gene was carried out in accordance with the Jump‐In^TM TI^TM Gateway® Targeted Integration System user guide (www.lifetechnologies.com) except replacement of tetracycline‐induced CMV promoter into SV40 promoter in MCR expression vector as previously described.[15] This technology enables stable single copy integration at the same location in the genome, equalising expression levels. CHO‐K1 cells expressing human MC2R and accessory protein MRAP were prepared by EuroscreenFast (Gosselies, Belgium).
(§3) Hanks' balanced salt solution containing 1% bovine serum albumin and 10 mmol/l HEPES was prepared and used as an assay buffer. Cells were suspended in the assay buffer containing 0.5 mmol/l 3‐isobutyl‐1‐methylxanthine (Calbiochem) and plated into a microplate. Serially diluted test substances were then added and incubated for 30 min at 37°C. Concentrations of cAMP in the cells were quantified using the cAMP dynamic 2 kit (Cisbio Bioassays) by measuring fluorescence.

human MC1R (hMC1R) = test: Cyclic AMP assay in HEK293 cells stably expressing hMC1R; format: cell-based; conditions: wild type and variants
Experimental: as §2, §3

[8] = Ay/a mouse, male, 0.03 mg/kg oral, day 1
[9] = Ay/a mouse, male, 0.3 mg/kg oral, day 1

T2 sequence (Q01718 whole entry): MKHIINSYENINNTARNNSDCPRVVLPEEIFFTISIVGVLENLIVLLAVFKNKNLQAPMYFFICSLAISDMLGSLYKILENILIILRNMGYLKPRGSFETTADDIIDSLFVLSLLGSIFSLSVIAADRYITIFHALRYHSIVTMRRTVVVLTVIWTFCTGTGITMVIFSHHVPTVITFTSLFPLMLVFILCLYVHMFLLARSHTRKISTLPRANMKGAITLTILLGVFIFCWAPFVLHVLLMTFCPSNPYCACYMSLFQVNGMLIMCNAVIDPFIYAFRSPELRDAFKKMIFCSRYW
T2 sequence (Q8TCY5 whole entry partner): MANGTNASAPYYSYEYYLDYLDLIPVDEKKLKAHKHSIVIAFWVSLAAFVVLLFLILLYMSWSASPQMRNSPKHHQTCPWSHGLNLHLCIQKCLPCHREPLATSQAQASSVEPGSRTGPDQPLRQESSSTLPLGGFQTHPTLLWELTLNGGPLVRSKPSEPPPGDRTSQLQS

Compound: COC[C@H]1CN(C(=O)[C@]2(F)CN(C3CCCC3)C[C@H]2c2ccc(OC)cc2)C[C@@H]1c1ccc(C(F)(F)F)cc1N1CCC(C(=O)O)CC1 [MT‐7117, dersimelagon]
- Expression of Tyr, Trp1 and Dct genes in pinnae (Tyr, Trp1 and Dct genes; 0.3 mg/kg single oral dose, 24 h): tendency towards gene upregulation
- Expression of Tyr, Trp1 and Dct genes in pinnae (Tyr, Trp1 and Dct genes; 3 mg/kg single oral dose, 24, 48 and 72 h, relative to Hprt): significantly upregulated
- pEC50 (rat MC1R): 9.60
- Histopathological change for melanocytes in face (melanocytes in face): no histopathological change
- Cmax ([1]; monkeys, repeated oral dosing 1 mg/kg, read-out: Cmax in molar units): 78 nM
- Increase of plasma levels with dose ([1]; monkeys, 1, 3 and 10 mg/kg): greater than a dose‐proportional increase
- Tmax ([1]; 1 mg/kg oral, day 28): 2.6 h
- AUC(0-t) ([1]; 1 mg/kg oral, day 28): 428 ng·h/mL
- Cmax ([1]; 1 mg/kg oral, day 28, read-out: C max): 53 ng/mL
- Tmax ([1]; 3 mg/kg oral, day 28): 1 h
- AUC(0-t) ([1]; 3 mg/kg oral, day 28): 2510 ng·h/mL
- Cmax ([1]; 3 mg/kg oral, day 28, read-out: C max): 401 ng/mL
- Tmax ([1]; 10 mg/kg oral, day 28): 1.8 h
- AUC(0-t) ([1]; 10 mg/kg oral, day 28): 14100 ng·h/mL
- Cmax ([1]; 10 mg/kg oral, day 28, read-out: C max): 1510 ng/mL
- C max ([2]; Ay/a mouse, male, 0.3 mg/kg oral, day 1, 0.3 mg/kg): 5.62 ng/mL
- Cmax ([2]; male, 0.03 mg/kg, Ay/a mouse, male, 0.03 mg/kg oral, day 1, read-out: C max): 0.668 ng/mL
- Cmax ([2]; male, 0.3 mg/kg, Ay/a mouse, male, 0.3 mg/kg oral, day 1, read-out: C max): 5.6 ng/mL
- Cmax ([2]; male, 0.3 mg/kg, mice, single oral dose 0.3 mg/kg, read-out: Cmax in molar units): 8.3 nM
- Increase of plasma levels with dose ([2]; mice, 0.03 and 0.3 mg/kg): dose‐proportional manner
- Tmax [2, 8]: 0.5 h
- AUC(0-t) [2, 8]: 2.62 ng·h/mL
- Tmax [2, 9]: 2 h
- AUC(0-t) [2, 9]: 31.8 ng·h/mL
- Distribution into the brain [3]: less likely to be distributed into the brain
- Time of dosing after which ΔL* decrease was statistically significant versus vehicle ([4]; 10 mg/kg/day oral): 3 weeks
- Time after cessation of treatment at which pigmentation diminished ([4]; 30 mg/kg group): 16 weeks
- Time of dosing after which ΔL* decrease was statistically significant versus vehicle ([4]; 30 mg/kg/day oral): 1 week
- Time after cessation of treatment at which pigmentation diminished ([4]; 1, 3 and 10 mg/kg groups): 4 weeks
- Time of dosing after which ΔL* decrease was statistically significant versus vehicle ([4]; 1 and 3 mg/kg/day oral): 4 weeks
- Minimum effective dose for skin pigmentation of monkeys ([4]; oral, once daily): 1 mg/kg
- Dose that induced significant skin pigmentation in monkeys ([4]; p.o.): ≥ 1 mg/kg/day
- pEC50 (human MC2R (hMC2R)): < 5.00
- pEC50 [5]: 10.89
- Coat colour of all mice ([6]; 0.3 mg/kg orally): black
- Coat colour of all mice ([6]; 3 mg/kg orally): black
- Pigment in the hair root (Fontana-Masson staining of dorsal skin) ([6]; 3 mg/kg, day 6): black
- Minimum effective dose for darkening of coat colour of mice ([6]; oral, Ay/a mice): 0.3 mg/kg
- Dose that significantly induced coat colour darkening in mice ([6]; p.o.): ≥ 0.3 mg/kg/day
- pEC50 [7]: 8.41
- Emax of cAMP production compared with αMSH (human MC1R (hMC1R)): same level as that of the endogenous agonist αMSH
